Assay results published in patent US20250179066A1, “ZWITTERIONIC ANTIBACTERIAL COMPOUNDS” (Hoffmann-La Roche Inc., priority 2022, published 2025).
Counter-ions that a name gives are not always drawn.

system: Acinetobacter baumannii ATCC17961; experiment: Antimicrobial susceptibility testing: 90% growth inhibitory concentration (IC90) determination; format: cell-based; conditions: 90% growth inhibitory concentration against Acinetobacter baumannii ATCC17961, Iso-Sensitest broth, OD 600 nm over 16 h; read-out: ATCC 17961 IC90
Procedure, shortened: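 OD600 monitored each minute over 16 h at 35±2° C for bacteria (~5×10^5 CFU/mL final) in Iso-Sensitest medium with 10-point twofold compound series (e.g. 10-0.0195 μM final). Concentration giving 90% growth inhibition in log phase reported as IC90.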

| Compound | IC90 |
| --- | --- |
| Cn1c(-c2cn(-c3ccc(N)cc3F)nc2C(F)(F)F)cnc1C(=O)Nc1ccc(C(=O)N2CCN(C(=O)CCC[N+](CCCN)(CCCN)CCCC(=O)O)CC2)c(Cl)c1 [Example 182, [4-[4-[4-[[5-[1-(4-amino-2-fluoro-phenyl)-3-(trifluoromethyl)pyrazol-4-yl]-1-methyl-imidazole-2-carbonyl]amino]-2-chloro-benzoyl]piperazin-1-yl]-4-oxo-butyl]-bis(3-aminopropyl)-(3-carboxypropyl)ammonium; 2,2,2-trifluoroacetate] | 201 nM |

same assay, conditions: Acinetobacter baumannii, ATCC17961, 16 h, 90% growth inhibitory concentration against Acinetobacter baumannii ATCC17961, Iso-Sensitest broth, OD 600 nm over 16 h; read-out: ATCC 17961 IC90

| Compound | IC90 |
| --- | --- |
| CN(C)C(=O)c1c[nH]c2cc(-n3cc(-c4cnc(C(=O)Nc5ccc(C(=O)N6CCN(C(=O)[C@H]7CC[N@+](CC(=O)O)(CC8CNC8)CC7)CC6)c(Cl)c5)n4C)c(C(F)(F)F)n3)ncc12 [Example 172, cis-2-[1-(azetidin-3-ylmethyl)-4-[4-[2-chloro-4-[[5-[1-[3-(dimethylcarbamoyl)-1H-pyrrolo[3,2-c]pyridin-6-yl]-3-(trifluoromethyl)pyrazol-4-yl]-1-methyl-imidazole-2-carbonyl]amino]benzoyl]piperazine-1-carbonyl]piperidin-1-ium-1-yl]acetic acid. 1:1 2,2,2-trifluoroacetate] | 194 nM |
| Cn1c(-c2cn(-c3cc4[nH]ncc4cn3)nc2C(F)(F)F)cnc1C(=O)Nc1ccc(C(=O)N2CCN(C(=O)[C@H]3CC[N@+](CC(=O)O)(CC4CNC4)CC3)CC2)c(Cl)c1 [Example 173, cis-2-[1-(azetidin-3-ylmethyl)-4-[4-[2-chloro-4-[[1-methyl-5-[1-(1H-pyrazolo[4,3-c]pyridin-6-yl)-3-(trifluoromethyl)pyrazol-4-yl]imidazole-2-carbonyl]amino]benzoyl]piperazine-1-carbonyl]piperidin-1-ium-1-yl]acetic acid. 1:1 2,2,2-trifluoroacetate] | 352 nM |
| Cn1c(-c2cn(-c3cc4c(ccn4CCO)cn3)nc2C(F)(F)F)cnc1C(=O)Nc1ccc(C(=O)N2CCN(C(=O)[C@H]3CC[N@+](CC(=O)O)(CC4CNC4)CC3)CC2)c(Cl)c1 [Example 174, cis-2-[1-(azetidin-3-ylmethyl)-4-[4-[2-chloro-4-[[5-[1-[1-(2-hydroxyethyl)pyrrolo[3,2-c]pyridin-6-yl]-3-(trifluoromethyl)pyrazol-4-yl]-1-methyl-imidazole-2-carbonyl]amino]benzoyl]piperazine-1-carbonyl]piperidin-1-ium-1-yl]acetic acid. 1:1 2,2,2-trifluoroacetate] | 430 nM |
| CNc1ccc(-n2cc(-c3cnc(C(=O)Nc4ccc(C(=O)N5CCN(C(=O)[C@H]6CC[N@+](CC(=O)O)(CC7CNC7)CC6)CC5)c(Cl)c4)n3C)c(C(F)(F)F)n2)c(F)c1 [Example 176, cis-2-[1-(azetidin-3-ylmethyl)-4-[4-[2-chloro-4-[[5-[1-[2-fluoro-4-(methylamino)phenyl]-3-(trifluoromethyl)pyrazol-4-yl]-1-methyl-imidazole-2-carbonyl]amino]benzoyl]piperazine-1-carbonyl]piperidin-1-ium-1-yl]acetic acid. 1:1 formate] | 88.1 nM |
| Cn1c(-c2cn(-c3cc4[nH]cc(C(=O)N5CCOCC5)c4cn3)nc2C(F)(F)F)cnc1C(=O)Nc1ccc(C(=O)N2CCN(C(=O)[C@H]3CC[N@+](CC(=O)O)(CC4CNC4)CC3)CC2)c(Cl)c1 [Example 177, cis-2-[1-(azetidin-3-ylmethyl)-4-[4-[2-chloro-4-[[1-methyl-5-[1-[3-(morpholine-4-carbonyl)-1H-pyrrolo[3,2-c]pyridin-6-yl]-3-(trifluoromethyl)pyrazol-4-yl]imidazole-2-carbonyl]amino]benzoyl]piperazine-1-carbonyl]piperidin-1-ium-1-yl]acetic acid. 1:1 2,2,2-trifluoroacetate] | 201 nM |
| Cn1c(-c2cn(-c3ccc(NCCO)cc3F)nc2C(F)(F)F)cnc1C(=O)Nc1ccc(C(=O)N2CCN(C(=O)[C@H]3CC[N@+](CC(=O)O)(CC4CNC4)CC3)CC2)c(Cl)c1 [Example 178, cis-2-[1-(azetidin-3-ylmethyl)-4-[4-[2-chloro-4-[[5-[1-[2-fluoro-4-(2-hydroxyethylamino)phenyl]-3-(trifluoromethyl)pyrazol-4-yl]-1-methyl-imidazole-2-carbonyl]amino]benzoyl]piperazine-1-carbonyl]piperidin-1-ium-1-yl]acetic acid. 1:1 formate] | 135 nM |
| Cn1c(-c2cn(-c3cc4[nH]cc(C(=O)N5CCC(F)(F)CC5)c4cn3)nc2C(F)(F)F)cnc1C(=O)Nc1ccc(C(=O)N2CCN(C(=O)[C@H]3CC[N@+](CC(=O)O)(CC4CNC4)CC3)CC2)c(Cl)c1 [Example 179, cis-2-[1-(azetidin-3-ylmethyl)-4-[4-[2-chloro-4-[[5-[1-[3-(4,4-difluoropiperidine-1-carbonyl)-1H-pyrrolo[3,2-c]pyridin-6-yl]-3-(trifluoromethyl)pyrazol-4-yl]-1-methyl-imidazole-2-carbonyl]amino]benzoyl]piperazine-1-carbonyl]piperidin-1-ium-1-yl]acetic acid. 1:1 2,2,2-trifluoroacetate] | 95.8 nM |
| Cn1c(-c2cn(-c3cc4[nH]c(CO)cc4cn3)nc2C(F)(F)F)cnc1C(=O)Nc1ccc(C(=O)N2CCN(C(=O)[C@H]3CC[N@+](CC(=O)O)(CC4CNC4)CC3)CC2)c(Cl)c1 [Example 180, cis-2-[1-(azetidin-3-ylmethyl)-4-[4-[2-chloro-4-[[1-methyl-5-[1-(2-methylol-1H-pyrrolo[3,2-c]pyridin-6-yl)-3-(trifluoromethyl)pyrazol-4-yl]imidazole-2-carbonyl]amino]benzoyl]piperazine-1-carbonyl]piperidin-1-ium-1-yl]acetic acid. 1:1 2,2,2-trifluoroacetate] | 135 nM |
| Cn1c(-c2cn(-c3ccc(N)cc3F)nc2C(F)(F)F)cnc1C(=O)Nc1ccc(C(=O)N2CCN(C(=O)C3CC[N+](CCCC(=O)O)(CC4CNC4)CC3)CC2)c(Cl)c1 (stereo not drawn) [Example 181, 4-[4-[4-[4-[[5-[1-(4-amino-2-fluoro-phenyl)-3-(trifluoromethyl)pyrazol-4-yl]-1-methyl-imidazole-2-carbonyl]amino]-2-chloro-benzoyl]piperazine-1-carbonyl]-1-(azetidin-3-ylmethyl)piperidin-1-ium-1-yl]butanoic acid;formate] | 244 nM |
| Cn1c(-c2cn(-c3ccc(N)cc3F)nc2C(F)(F)F)cnc1C(=O)Nc1ccc(C(=O)N2CCN(C(=O)CCC[N+](CCCN)(CCCN)CC(=O)O)CC2)c(Cl)c1 [Example 183, [4-[4-[4-[[5-[1-(4-amino-2-fluoro-phenyl)-3-(trifluoromethyl)pyrazol-4-yl]-1-methyl-imidazole-2-carbonyl]amino]-2-chloro-benzoyl]piperazin-1-yl]-4-oxo-butyl]-bis(3-aminopropyl)-(carboxymethyl)ammonium;formate] | 108 nM |
| Cn1c(-c2cn(-c3ccc4[nH]c(CN)cc4n3)nc2C(F)(F)F)cnc1C(=O)Nc1ccc(C(=O)N2CCN(C(=O)[C@H]3CC[N@+](CC(=O)O)(CC4CNC4)CC3)CC2)c(Cl)c1 [Example 184, cis-2-[4-[4-[4-[[5-[1-[2-(aminomethyl)-1H-pyrrolo[3,2-b]pyridin-5-yl]-3-(trifluoromethyl)pyrazol-4-yl]-1-methyl-imidazole-2-carbonyl]amino]-2-chloro-benzoyl]piperazine-1-carbonyl]-1-(azetidin-3-ylmethyl)piperidin-1-ium-1-yl]acetic acid;formate] | 64.2 nM |
